Results reported in patent US6235736A, “3-anilino-2-cycloalkenone derivatives” (Nikken Chemicals Co., Ltd., priority 1997, dated 2001).

Key:
Type IV PDE = test: PDE IV inhibitory activity (isozyme partially purified from rat neutrophils, 3H-cAMP substrate); type: biochemical; settings: rat neutrophil PDE IV, 30° C., 30 minutes, read-out: PDE IV inhibiting action IC50
Protocol: Type I, III, IV, and V PDE isozymes were prepared to study the PDE inhibitory activities of and selectivities with the compound of the invention [Trends Pharmacol Sci., 12, 19-27 (1991)]. Type I PDE was purchased from Sigma Corp. Type III, IV, and V PDE isozymes were partially purified from platelets (Type III and V) or neutrophils (Type IV) collected from rats. Each enzyme source was homogenized in a buffer (pH 6.5) containing 20 mM bisTris, 2 mM EDTA (i.e., ethlenediamine tetraacetate), 2-mercaptoethanol, 0.001 mM pepstatin and 0.01 mM leupeptin and was centrifuged at 30000×G for 30 minutes to obtain a supernatant, which was applied to an ion exchange column (Q-sepharose first flow, Pharmacia Corp.) and was eluted with 0 to 1M sodium acetate. Partially purified isozymes were identified by observing the inhibitory effects of conventional inhibitors.
Each PDE isozyme and the test compound dissolved in DMSO (i.e., dimethylsulfoxide) were added to 50 mM Tris--HCI buffer containing 5 mM magnesium chloride. ^3 H-cAMP (for type III and IV PDE) or ^3 H-cGMP (for type I and V PDE) were added as substrates and were reacted at 30° C. for 30 minutes. The reaction was terminated by placing the test tube in boiling water of 100° C. for 5 minutes. The nucleotides formed by PDE were broken down to ^3 H-adenosine or ^3 H-guanosine by 5'-nucleotidase. The substrate and reaction product were separated through an ion-exchange column (i.e., QAE sephadex, Pharmacia Corp.)
The eluted ^3 -H-nucleoside was measured for its radioactivity by a liquid scintillation counter. The inhibitory activities of the compound of the present invention are shown by the IC50 value (M). Further, the inhibitory activities of the test samples against type I, III, and V PDE are 1/10 or less than that against Type IV PDE.

[1] = test system: TPA induced ear edema in mouse; test: TPA induced mouse ear edema assay; type: in vivo, mouse (male ICR); settings: 0.1 mg applied to right ear immediately after TPA; 6 hour
Protocol: Male ICR mice, 5 week old, were divided into groups of seven to eight. 2 μg of TPA (phorbor 12-ministate; Sigma Co.) in 20 μl acetone was applied to the inner and outer surface of right ear of each mouse to cause a reaction. 0.1 mg of compound was dissolved in 20 μl of a tetrahydrofuran-methanol mixture (mixture ratio 1:1) and the solution (20 μl) applied to the right ear immediately after TPA treatment. After 6 hour, the animals were sacrificed and right ear was punched out (.phi. […]) and weighed. The effect of comppund.was calculated as % inhibition as follows: [formula]

Compound	IC50 (Type IV PDE)	% Inhibition of ear edema [1]
COc1ccc(N(C)C2=CC(=O)CC2)cc1OC1Cc2ccccc2C1 [Compound No. 76]	130 nM	52.7%
COc1ccc(N(Cc2cccnc2)C2=CC(=O)CC2)cc1OC1CCCC1 [Compound No. 63, 3-[3-cyclopentyloxy-4-methoxy-N-(3-pyridylmethyl)anilino]2-cyclopenten-1-one]	5300 nM	75.4%
COc1ccc(N(C)C2=CC(=O)CCC2)cc1OC1CCCC1 [Compound No. 27, 3-(3-cyclopentyloxy-4-methoxy-N-methylanilino)-2-cyclohexen-1-one]	1900 nM	86.4%
COc1ccc(N(Cc2ccccc2)C2=CC(=O)CC2)cc1O[C@@H]1C[C@H]2CC[C@@H]1C2 (racemic) [Compound No. 81, 3-[N-benzyl-3-[(1RS,2RS,4SR)-bicyclo[2.2. 1]hept-2-yloxy]4-methoxyanilino]-2-cyclopenten-1-one]	1000 nM	82.7%
COc1ccc(N(Cc2ccccc2)C2=CC(=O)CCC2)cc1O[C@@H]1C[C@H]2CC[C@@H]1C2 (relative stereo) [Compound No. 84, 3-[N-benzyl-3-[rel(1R,2R,4S)-bicyclo[2.2. 1]hept-2-yloxy]-4-methoxyanilino]-2-cyclohexen-1-one]	1400 nM	71.8%
COc1ccc(N(Cc2ccc3ccccc3c2)C2=CC(=O)CC2)cc1OC1CCCC1 [Compound No. 62, 3-[3-cyclopentyloxy-4-methoxy-N-(2-naphthylmethyl)anilino]-2-cyclopenten-1-one]	1200 nM	78.8%
COc1ccc(N(Cc2ccccn2)C2=CC(=O)CCC2)cc1OC1Cc2ccccc2C1 [Compound No. 68, 3-[3-(2-indanyloxy)-4-methoxy-N-(2-pyridylmethyl)anilino]-2-cyclohexen-1-one]	490 nM	52.0%
COc1ccc(NC2=C(C)C(=O)CC2)cc1OCC1CC1 [Compound No. 16, 3-(3-cyclopropylmethoxy-4-methoxyanilino)-2-methyl-2-cyclogenten-1-one]	1000 nM	72.1%
CCCCOc1cc(NC2=CC(=O)CC2)ccc1OC [Compound No. 17, 3-(3-butoxy-4-methoxyanilino)-2-cyclopenten-1-one]	14000 nM	57.1%
COc1ccc(N(C)C2=CC(=O)CCC2)cc1OC1Cc2ccccc2C1 [Compound No. 65, 3-[3-(2-indanyloxy)-4-methoxy-N-methylanilino]-2-cyclohexen-1-one]	290 nM	52.5%
COc1ccc(NC2=CC(=O)CC2)cc1OCC1(c2ccccc2)CC1 [Compound No. 49, 3-[4-methoxy-3-[(1-phenylcyclopropyl)methoxy]anilino]-2-cyclopenten-1-one]	2300 nM	54.3%
COc1ccc(NC2=CC(=O)CCC2)cc1O[C@@H]1C[C@H]2CC[C@@H]1C2 (relative stereo) [Compound No. 83, 3-[3-[rel(1R,2R,4S)-bicyclo[2.2. 1]hept-2-yloxy]-4-methoxyanilino]-2-cyclohexen-1-one]	1600 nM	70.5%
COc1ccc(N(Cc2ccc3ccccc3c2)C2=CC(=O)CC2)cc1OC1CCCCC1 [Compound No. 57, 3-[3-cyclohexyloxy-4-methoxy-N-(2-naphthylmethyl)anilino]-2-cyclopenten-1-one]	1900 nM	89.7%
COc1ccc(NC2=CC(=O)CC2)cc1OC1CCCCC1 [Compound No. 13, 3-(3-cyclohexyloxy-4-methoxyanilino)-2-cyclopenten-1-one]	7400 nM	51.8%
COc1ccc(NC2=C(C)C(=O)CCC2)cc1OC1CCCCC1 [Compound No. 55, 3-(3-cyclohexyloxy-4-methoxyanilino)-2-methyl-2-cyclohexen-1-one]	2000 nM	70.8%
COc1ccc(N(Cc2ccncc2)C2=CC(=O)CC2)cc1OC1Cc2ccccc2C1 [Compound No. 78, 3-[3-(2-indanyloxy)-4-methoxy-N-(4-pyridylmethyl)anilino]-2-cyclopenten-1-one]	1300 nM	82.2%

Continued, in another order:

IC50 (Type IV PDE)	Compound	% Inhibition of ear edema [1]
4300 nM	COc1ccc(N(Cc2ccncc2)C2=CC(=O)CC2)cc1OC1CCCC1 [Compound No. 28, 3-[3-cyclopentyloxy-4-methoxy-N-(4-pyridylmethyl)anilino]-2-cyclopenten-1-one]	71.5%
44000 nM	COc1ccc(N(C2=CC(=O)CC2)C2CCCC2)cc1OC1CCCC1 [Compound No. 60, 3-(N-cyclopentyl-3-cyclopentyloxy-4-methoxyanilino)-2-cyclopenten-1-one]	78.5%
3200 nM	COc1ccc(N(Cc2ccncc2)C2=C(C)C(=O)CC2)cc1OC1Cc2ccccc2C1 [Compound No. 73, 3-[3-(2-indanyloxy)-4-methoxy-N-(4-pyridylmethyl)anilino]-2-methyl-2-cyclopenten-1-one]	54.3%
570 nM	COc1ccc(N(Cc2ccccc2)C2=CC(=O)CCC2)cc1OC1Cc2ccccc2C1 [Compound No. 66, 3-[N-benzyl-3-(2-indanyloxy)-4-methoxyanilino]-2-cyclohexen-1-one]	72.8%
7400 nM	CCCN(C1=CC(=O)CC1)c1ccc(OC)c(OC2CCCC2)c1 [Compound No. 59, 3-(3-cyclopentyloxy-4-methoxy-N-propylanilino)-2-cyclopenten-1-one]	60.1%
2600 nM	COc1ccc(N(Cc2ccccc2)C2=CC(=O)CC2)cc1OC1CCCC1 [Compound No. 30, 3-(N-benzyl-3-cyclopentyloxy-4-methoxyanilino)-2-cyclopenten-1-one]	78.4%
3600 nM	COc1ccc(N(Cc2ccncc2)C2=CC(=O)CCC2)cc1O[C@@H]1C[C@H]2CC[C@@H]1C2 (racemic) [Compound No. 85, 3-[3-[(1RS,2RS,4SR)-bicyclo[2.2. 1]hept-2-yloxy]4-methoxy-N-(4-pyridylmethyl)anilino]-2-cyclohexen-1-one]	70.3%
1800 nM	COc1ccc(NC2=CC(=O)CCC2)cc1OC1Cc2ccccc2C1 [Compound No. 19, 3-[3-(2-indanyloxy)-4-methoxyanilino]-2-cyclohexen-1-one]	76.3%
220 nM	COc1ccc(NC2=C(C)C(=O)CC2)cc1O[C@@H]1C[C@H]2CC[C@@H]1C2 (racemic) [Compound No. 44, 3-[3-[(1RS,2RS,4SR)-bicyclo[2.2. 1]hept-2-yloxy]-4-methoxyanilino]-2-methyl-2-cyclopenten-1-one]	74.1%
5500 nM	COc1ccc(N(Cc2ccccc2)C2=CC(=O)CC2)cc1OC1CCCCC1 [Compound No. 56, 3-(N-benzyl-3-cyclohexyloxy-4-methoxyanilino)-2-cyclopenten-1-one]	86.1%
1600 nM	COc1ccc(N(C)C2=C(C)C(=O)CC2)cc1O[C@@H]1C[C@H]2CC[C@@H]1C2 (racemic) [Compound No. 47, 3-[3-[(1RS,2RS,4SR)-bicyclo[2.2. 1]hept-2-yloxy]4-methoxy-N-methylanilino]-2-methyl-2-cyclopenten-1-one]	59.9%
530 nM	COc1ccc(N(Cc2ccc3ccccc3n2)C2=CC(=O)CC2)cc1O[C@@H]1C[C@H]2CC[C@@H]1C2 (relative stereo) [Compound No. 82, 3-[3-[(1RS,2RS,4SR)-bicyclo[2.2. 1]hept-2-yloxy]4-methoxy-N-(2-quinolinemethyl)anilino]-2-cyclopenten-1-one]	84.4%
80 nM	CCC1=C(Nc2ccc(OC)c(O[C@@H]3C[C@H]4CC[C@@H]3C4)c2)CCC1=O (racemic) [Compound No. 45, 3-[3-[(1RS,2RS,4SR)-bicyclo[2.2. 1]hept-2-yloxy]-4-methoxyanilino]-2-ethyl-2-cyclopenten-1-one]	75.3%
3200 nM	COc1ccc(N(Cc2ccccn2)C2=CC(=O)CC2)cc1OC1CCCC1 [Compound No. 61, 3-[3-cyclopentyloxy-4-methoxy-N-(2-pyridylmethyl)anilino]-2-cyclopenten-1-one]	66.2%
